Data from patent US6646129B2, “Cyanoguanidines as cell proliferation inhibitors” (Leo Pharmaceutical Products Ltd. A/S, priority 1997, dated 2003).

Legend:
Assay type in all cases: cell-based
[1] = tested on: human breast cancer (MCF-7) cell line; assay: Inhibition of tumour cell proliferation in vitro, [3H]thymidine incorporation, MCF-7; settings: MCF-7 cells, 24 hours with compound, DNA synthesis by [3H]thymidine incorporation
Procedure: (§1) The inhibition of tumour cell proliferation was studied using different types of human cancer cell lines. The cell lines under investigation were small cell lung carcinoma (NYH), non small cell lung carcinoma (NCl-H460), and breast cancer (MCF-7) using the following general procedure:
(§2) The cells were cultured in vitro for 24 hours in the presence of the compound under investigation. DNA synthesis was measured by incorporation of [^3H]thymidine, and the median inhibitory concentrations (IC50) of the compounds were calculated.

[2] = tested on: human small cell lung carcinoma (NYH) cell line; assay: Inhibition of tumour cell proliferation in vitro, [3H]thymidine incorporation, NYH; settings: NYH cells, 24 hours with compound, DNA synthesis by [3H]thymidine incorporation
Procedure: as §1, §2

[3] = tested on: human non small cell lung cancer (NCI-H460) cell line; assay: Inhibition of tumour cell proliferation in vitro, [3H]thymidine incorporation, NCI-H460; settings: NCI-H460 cells, 24 hours with compound, DNA synthesis by [3H]thymidine incorporation
Procedure: as §1, §2

SMILES | IC50 [1] [nM] | IC50 [2] [nM] | IC50 [3] [nM] | IC50 ([1]; Homo sapiens, MCF7) [nM] | IC50 ([2]; Homo sapiens) [nM] | IC50 ([3]; Homo sapiens) [nM]
N#CNC(=NCCCCCCCCCCCOC1CCCCO1)Nc1ccncc1 (stereo not drawn) [Example No. 7, N-Cyano-N′-4-pyridyl-N″-(11-tetrahydropyranyloxyundecanyl)guanidine] | 4.2 | 0.51 | 4.6 |  |  | 
CCP(=O)(CC)OCCCCCCCCCCCNC(=Nc1ccncc1)NC#N [Example No. 8, N-Cyano-N′-(11-diethylphosphinoyloxyundecanyl)-N″-4-pyridylguanidine] |  |  |  | 1.7 | 0.48 | 6
CC(C)(C)OC(=O)NCCCCCCCCCCCCNC(=Nc1ccncc1)NC#N [Example No. 1, N-(1 2-t-Butoxycarbonylaminododecyl)-N′-cyano-N″-4-pyridylguanidine] |  |  |  | 3.6 | 0.62 | 45
